Data on ten compounds can be found in patent US11524966B1 (Valo Early Discovery, Inc., priority 2017, dated 2022).

The target in the assay is T1, USP28 (His-tagged USP28-FL-mammalian) (Homo sapiens, UniProt Q96RU2).
T1 construct: Expression of USP28 (1-1077)-TEV-6*His (pTT5 vector); made in house; host or cells: Expi293f cells (pTT5 vector)
T1 sequence (Q96RU2 1-1077): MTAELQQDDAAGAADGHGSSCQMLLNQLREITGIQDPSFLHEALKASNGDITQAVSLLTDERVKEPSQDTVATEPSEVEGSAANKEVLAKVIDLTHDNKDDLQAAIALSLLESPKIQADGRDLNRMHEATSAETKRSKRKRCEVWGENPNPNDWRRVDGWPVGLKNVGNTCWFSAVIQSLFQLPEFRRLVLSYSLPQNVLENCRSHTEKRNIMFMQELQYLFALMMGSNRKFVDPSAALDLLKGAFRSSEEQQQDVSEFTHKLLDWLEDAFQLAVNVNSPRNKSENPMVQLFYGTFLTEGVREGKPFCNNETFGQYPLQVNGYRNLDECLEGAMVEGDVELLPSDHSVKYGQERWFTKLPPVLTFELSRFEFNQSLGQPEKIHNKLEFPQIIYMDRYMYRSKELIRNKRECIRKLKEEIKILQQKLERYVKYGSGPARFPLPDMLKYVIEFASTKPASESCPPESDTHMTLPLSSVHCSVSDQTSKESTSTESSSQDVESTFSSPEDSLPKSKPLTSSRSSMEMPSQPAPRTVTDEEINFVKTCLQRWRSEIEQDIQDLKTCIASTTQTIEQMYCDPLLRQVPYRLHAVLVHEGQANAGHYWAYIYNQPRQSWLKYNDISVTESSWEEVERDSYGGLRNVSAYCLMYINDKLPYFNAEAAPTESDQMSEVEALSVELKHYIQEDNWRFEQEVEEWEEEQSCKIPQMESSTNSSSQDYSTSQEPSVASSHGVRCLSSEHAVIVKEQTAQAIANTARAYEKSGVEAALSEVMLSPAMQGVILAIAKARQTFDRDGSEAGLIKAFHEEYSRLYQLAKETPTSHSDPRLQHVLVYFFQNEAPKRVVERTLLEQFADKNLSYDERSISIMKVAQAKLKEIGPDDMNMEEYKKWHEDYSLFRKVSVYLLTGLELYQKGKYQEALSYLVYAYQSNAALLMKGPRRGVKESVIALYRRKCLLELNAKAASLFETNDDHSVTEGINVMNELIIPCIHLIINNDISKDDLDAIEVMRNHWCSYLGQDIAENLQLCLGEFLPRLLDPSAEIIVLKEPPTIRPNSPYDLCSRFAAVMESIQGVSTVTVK
In words: Ubiquitin-Rhodamine 110 Assay for USP28 Activity, Example A-1(a). The assay is classed as biochemical. The settings on record: Ubiquitin-Rhodamine 110 assay, Example A-1(a); read-out: USP28 A-1(a) IC50 range. The essentials: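 Full-length His-tagged human USP28 (1-1077, Expi293f-expressed), […], with 25 nM Ub-Rh110 (<<Km) in pH 8.0 Tris buffer with BME, BGG, Triton X-100. 10-point dilutions (25 μM-1.3 nM), 45 min at room temperature, citric acid stop, fluorescence 485/535 nm; IC50 by 4-parameter fit.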
A word on the IC50: it is the concentration that inhibits the measured activity by half. Consider `Cc1ccc2c(N)c(C(=O)N[C@H]3CCc4nc(N5C[C@@H](N)[C@@H](C(F)F)C5)ccc4C3)sc2n1` [Example 346, 3-amino-N-[(6S)-2-[(3S,4S)-3-amino-4-(difluoromethyl)pyrrolidin-1-yl]-5,6,7,8-tetrahydroquinolin-6-yl]-6-methylthieno[2,3-b]pyridine-2-carboxamide], for which the IC50 was 50 to 200 nM.

For `Cc1ccc2c(N)c(C(=O)N[C@H]3COc4cc(N5C[C@@H](N)[C@H](F)C5)ccc4C3)sc2n1` [Example 3-8, 3-amino-N-((R)-7-((3R,4R)-3-amino-4-fluoropyrrolidin-1-yl)chroman-3-yl)-6-methylthieno[2,3-b]pyridine-2-carboxamide], the IC50 lay within 1 to 50 nM.

On to `Cc1ccc2c(N)c(C(=O)N[C@H]3COc4cc(N5CCN[C@@H](C(F)(F)F)C5)ccc4C3)sc2n1` [Example 3-11, 3-amino-6-methyl-N-((R)-7-((R)-3-(trifluoromethyl)piperazin-1-yl)chroman-3-yl)thieno[2,3-b]pyridine-2-carboxamide], for which the IC50 lay in the range of 50 to 200 nM.

With `O=C(N[C@H]1COc2cc(N3CCNCC3)ccc2C1)c1cnn2cccnc12` [Example 466, (R)-N-(7-(piperazin-1-yl)chroman-3-yl)pyrazolo[1,5-a]pyrimidine-3-carboxamide], the IC50 was above 2000 nM.

With `Cc1ccc2c(N)c(C(=O)N[C@H]3COc4cc(N5CC6COCC(C5)C6(F)F)ccc4C3)sc2n1` [Example 5-4, 3-amino-N-((3R)-7-(9,9-difluoro-3-oxa-7-azabicyclo[3.3.1]nonan-7-yl)chroman-3-yl)-6-methylthieno[2,3-b]pyridine-2-carboxamide], the IC50 lay within 1 to 50 nM.

Turning to `O=C(N[C@H]1COc2cc(N3CC4CCC(C3)N4)ccc2C1)c1cnc2c(c1)[C@@H]1C[C@@H]1CN2` [Example 3-15, (1aS,7bR)-N-((3R)-7-(3,8-diazabicyclo[3.2.l]octan-3-yl)chroman-3-yl)-1a,2,3,7b-tetrahydro-1H-cyclopropa[c][1,8]naphthyridine-6-carboxamide], the half-inhibitory concentration (IC50) lay within 1 to 50 nM.

Regarding `Cc1ccc2c(N)c(C(=O)N[C@H]3COc4cc(N5C[C@H](N)CC56COC6)ccc4C3)sc2n1` (single isomer, unassigned) [Example 351], the IC50 fell in the range of 1 to 50 nM.

Take `Cc1ccc2c(N)c(C(=O)N[C@H]3CCc4nc(N5C[C@@H](N)[C@@]6(CCCO6)C5)ccc4C3)sc2n1` [Example 392, 3-amino-N-[(6S)-2-[(5R,9R)-9-amino-1-oxa-7-azaspiro[4.4]nonan-7-yl]-5,6,7,8-tetrahydroquinolin-6-yl]-6-methylthieno[2,3-b]pyridine-2-carboxamide]: the IC50 is 200 to 2000 nM.

Turning to `O=C(N[C@H]1COc2cc(N3CCNCC3)ccc2C1)c1ccc(NCc2ccccn2)nc1` [Example 470, (R)-N-(7-(piperazin-1-yl)chroman-3-yl)-6-((pyridin-2-ylmethyl)amino)nicotinamide], the IC50 was above 2000 nM.

Turning to `O=C(N[C@H]1COc2cc(N3CCNCC3)ccc2C1)c1ccc(NCc2cccnc2)nc1` [Example 468, (R)-N-(7-(piperazin-1-yl)chroman-3-yl)-6-((pyridin-3-ylmethyl)amino)nicotinamide], the IC50 lay within 200 to 2000 nM.
